From US20240294659A1, “Method and Compositions for Inducing Differentiation of Myeloid Derived Suppressor Cell to Treat Cancer and Infectious Diseases” (OSE Immunotherapeutics, priority 2014, published 2024) come the findings set out here.

For test [1], the system named is Hepa1.6 mouse hepatoma cells. Kind of test: Hepatocellular carcinoma mice model. In kind it is in vivo. The following applies: Sorafenib 40 mg/kg daily oral gavage, day 0 to day 28 (FIG. 10). As for the experimental part: Eight-weeks-old C57B1/6J male mice received 2.5×10^6Hepa1.6 mouse hepatoma cells in 100 μL through the portal vein, as previously described (Gauttier et al., 2014). Four and eight days after tumour inoculation, mice were injected intraperitoneally with 100 μg of rat anti-CD137 mAb (4-1BB mAb), or with 300 μg of anti-mouse SIRPα monoclonal antibody (clone P84 from Merck Millipore) or both antibodies or an irrelevant control antibody (clone 3G8) 3 times/week for 4 weeks (FIG. 17A) or with 200 μg of the anti-PD-LI mAb (clone 10F-9G2 from BioXCell) or received both antibodies (anti-SIRPα+anti-PDL1) for 4 weeks (FIG. 17B). Sorafenib (Nexavar-Bayer) treated mice received daily 100 μl oral gavage of 40 mg/kg from day 0 to day 28 (FIG. 10). The overall survival was analyzed. Some mice were sacrificed at day 14 after tumor inoculation for leukocytes tumor infiltration quantification and characterization by isolation of non-parenchymal cells of the liver by a Percoll gradient and FACS analysis.

In the next test the test system is rat MDSC. Kind of test: Rat MDSC two-day culture with anti-SIRPα antibody, with or without GM-CSF, phenotype by flow cytometry. As to conditions: two days, GM-CSF 10 ng/ml with or without anti-SIRPα 10 μg/ml (FIG. 4). In kind it is cell-based. An excerpt:
Human blood MDSC were characterized and sorted by flow cytometry as follow: CD11b^+CD33^+HLA-DR^low/−CD14^+CD15^− for Mo-MDSC and CD11b^+CD33^+HLA-DR^− CD14^− CD15+ for PMN-MDSC. Rat blood and spleen MDSC were characterized and sorted by flow cytometry as CD11b^+MHC ClassII-NKRP1^int (both Mo-MDSC and PMN-MDSC was included in this phenotype). Mouse MDSC were characterize as follow: CD11b^+MHC Class II-Ly6C^high Ly6G^− for Mo-MDSC and CD11b^+MHC Class II-Ly6C^+Ly6G^+ for PMN-MDSC.
MDSC were purified by flow cytometry according to previously described phenotypes. Purity of cells sorted by flow cytometry was higher than 99%. Freshly purified MDSC were then seeded at 50×10^3 cells/well in 96-well flat-bottomed microtiter plates and cultured for two days in RPMI-1640 medium (supplemented with 2 mM L-glutamine, 100 U/ml penicillin, 0.1 mg/ml streptomycin, 10% heat-inactivated fetal calf serum, 1% nonessential amino acids, 5 mM HEPES, 1 mM sodium pyruvate, and 1 μM 2-mercaptoethanol) and with irrelevant control antibody or anti-SIRPα monoclonal antibody (clone SE7C2 (Santa Cruz Biotechnology) and SE5A5 (Biolegend) for human MDSC or clone ED9 (AbD Serotec) for rat MDSC) at 10 μg/ml. In a different setting, recombinant GM-CSF (10 ng/ml) was also added to force the macrophages/dendritic cells differentiation. […]
In general terms: A flow cytometer gives signals particle by particle.

On to `CNC(=O)c1cc(Oc2ccc(NC(=O)Nc3ccc(Cl)c(C(F)(F)F)c3)cc2)ccn1` [Sorafenib], for which the “mice rescued (overall survival)” value in test [1] was 60%. Turning to “GM-CSF: recombinant GM-CSF added to force the macrophages/dendritic cells differentiation”, the “differentiation of MDSC (MHC Class II, CD103, CD11b, CD80)” value in the test with rat MDSC is “induce the differentiation of MDSC in mature MHC Class II^+ myeloids cells”.
